Assay: xn = mol fraction of the nth substance listed
Details: 298.15 K, 101 kPa

SMILES: CCOC(C)=O + CCCC[n+]1ccn(C)c1.O=S(=O)([N-]S(=O)(=O)C(F)(F)F)C(F)(F)F
- viscosity (x1 = 0.0522): 44.4 mPa·s
- viscosity (x1 = 0.1818): 30.6 mPa·s
- viscosity (x1 = 0.2982): 21.1 mPa·s
- viscosity (x1 = 0.4204): 13.67 mPa·s
- viscosity (x1 = 0.4752): 10.91 mPa·s
- viscosity (x1 = 0.5937): 6.54 mPa·s
- viscosity (x1 = 0.6953): 3.93 mPa·s
- viscosity (x1 = 0.7954): 2.21 mPa·s
- viscosity (x1 = 0.8933): 1.105 mPa·s

SMILES: CCCC[n+]1ccn(C)c1.O=S(=O)([N-]S(=O)(=O)C(F)(F)F)C(F)(F)F + CCO
- viscosity (x2 = 0.0793): 42.6 mPa·s
- viscosity (x2 = 0.1393): 36.8 mPa·s
- viscosity (x2 = 0.2058): 31.4 mPa·s
- viscosity (x2 = 0.2578): 27.3 mPa·s
- viscosity (x2 = 0.345): 21.6 mPa·s
- viscosity (x2 = 0.384): 19.4 mPa·s
- viscosity (x2 = 0.4122): 17.91 mPa·s
- viscosity (x2 = 0.5622): 11.15 mPa·s
- viscosity (x2 = 0.688): 7.11 mPa·s
- viscosity (x2 = 0.7967): 4.36 mPa·s
- viscosity (x2 = 0.8984): 2.46 mPa·s

From a compilation of properties of binary mixtures (doi:10.1007/s10953-010-9507-z)
